Reference: the supplement of paper PMC11208160

Assay: recombinant UMI read abundance after kanamycin selection (control-corrected) (log10(CPM+1)); higher = more efficient recombination; extreme values may be limits of the assay; sequences stand for … in AGTGCAGAGAAAATCGGCCAGTTTTCTCTGCCTGCAGTCCGCATGCCGTGGGACCCCTTGGGTTCTAACCTGTTGCCTAGATTTATGCAGCGGACTGCCTTTCTCCCAAAGTGATAAACCGG…AGGTTGGTTTCACT; site = the 11-nt donor
How it was run: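 Pooled Escherichia coli screen of donor and donor-binding-loop pairs for the IS621 bridge recombinase. Each pair sits with a 12-nt UMI on a plasmid carrying a promoterless kanamycin gene. The library was co-electroporated with a target plasmid encoding a fixed target and T7-inducible recombinase, then plated with IPTG (0.07 mM) plus kanamycin, or unselected, each in two replicates. Recombinant UMIs were PCR-amplified across the donor–target junction and sequenced. Counts became CPM, averaged over replicates, scaled by control-derived factors and reported as log10(CPM+1).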
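Note: IS621 bridge recombinase in Escherichia coli cells against a fixed T5 target plasmid.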

“CCATCATCATGGACCGGTTTTCCCGGTAATCCGTATTTGTT (site CCATCATCTAA)” and “CCATCATCATGGACCGGTTTTCCCGGTAATCCGTATTTGTT (site CGATCATCTAG)” are within 0.2 log units of each other in “recombinant UMI read abundance (log10)” value: 0.00419 for the first, 0 for the second.

First: CCATCGGCATGGACCGGTTTTCCCGGTAATCCGTATTTGTG (site CCATCGGCTCA)
Second: CCATCTTCATGGACCGGTTTTCCCGGTAATCCGTATTTGCT (site CCATCTTCTAG)
The “recombinant UMI read abundance (log10)” value of the first is higher: 1.73 for the first, 0.0559 for the second.

“CCATCTTCATGGACCGGTTTTCCCGGTAATCCGTATTTGCT (site CGATCATCTAG)” and “CCATGACCATGGACCGGTTTTCCCGGTAATCCGTATTTGGA (site CCATGACCTTC)” are within 0.2 log units of each other in “recombinant UMI read abundance (log10)” value: 0 for the first, 0.023 for the second.

First: CCATGCTCATGGACCGGTTTTCCCGGTAATCCGTATTTGAA (site CAATGCTCTTT)
Second: CCATGCTCATGGACCGGTTTTCCCGGTAATCCGTATTTGAA (site CCATGCTCTTT)
The “recombinant UMI read abundance (log10)” value of the first is lower: 0.0121 for the first, 0.703 for the second.

“CCATGCTCATGGACCGGTTTTCCCGGTAATCCGTATTTGAA (site CGATGCTCTTT)” and “CCATGCTCATGGACCGGTTTTCCCGGTAATCCGTATTTGAA (site CTATGCTCTTT)” are within 0.2 log units of each other in “recombinant UMI read abundance (log10)” value: 0.0134 for the first, 0.015 for the second.

Going from “CCATGTGCATGGACCGGTTTTCCCGGTAATCCGTATTTGAT (site CCAAGTGCTAT)” to “CCATGTGCATGGACCGGTTTTCCCGGTAATCCGTATTTGAT (site CCACGTGCTAT)”, the “recombinant UMI read abundance (log10)” value rises from 0.00273 to 0.215.

First: CCATGTGCATGGACCGGTTTTCCCGGTAATCCGTATTTGAT (site CCAGGTGCTAT)
Second: CCATGTGCATGGACCGGTTTTCCCGGTAATCCGTATTTGAT (site CCATGTGCTAT)
The “recombinant UMI read abundance (log10)” value of the first is lower: 0.00344 for the first, 1.09 for the second.

“CCATTAGCATGGACCGGTTTTCCCGGTAATCCGTATTTGTG (site CCATTAGCTCA)” and “CCATTAGCATGGACCGGTTTTCCCGGTAATCCGTATTTGTG (site CCCTTAGCTCA)” are within 0.2 log units of each other in “recombinant UMI read abundance (log10)” value: 0.183 for the first, 0.00634 for the second.

“CCATTAGCATGGACCGGTTTTCCCGGTAATCCGTATTTGTG (site CCGTTAGCTCA)” and “CCATTAGCATGGACCGGTTTTCCCGGTAATCCGTATTTGTG (site CCTTTAGCTCA)” are within 0.2 log units of each other in “recombinant UMI read abundance (log10)” value: 0.0308 for the first, 0.0119 for the second.

“CCATTCCCATGGACCGGTTTTCCCGGTAATCCGTATTTGAC (site CCATTCCCTGT)” and “CCATTTGCATGGACCGGTTTTCCCGGTAATCCGTATTTGGC (site CCATTTGCTGC)” are the same in “recombinant UMI read abundance (log10)” value: 0 for the first, 0 for the second.

First: CCCAAAGCATGGACCGGTTTTCCCGGTAATCCGTATTTGAT (site CCAAAAGCTAT)
Second: CCCAAAGCATGGACCGGTTTTCCCGGTAATCCGTATTTGAT (site CCCAAAGCTAT)
The “recombinant UMI read abundance (log10)” value of the first is lower: 0 for the first, 0.774 for the second.

“CCCAAAGCATGGACCGGTTTTCCCGGTAATCCGTATTTGAT (site CCGAAAGCTAT)” and “CCCAAAGCATGGACCGGTTTTCCCGGTAATCCGTATTTGAT (site CCTAAAGCTAT)” are within 0.2 log units of each other in “recombinant UMI read abundance (log10)” value: 0 for the first, 0.00406 for the second.

“CCCAATACATGGACCGGTTTTCCCGGTAATCCGTATTTGGC (site CCAAATACTGC)” and “CCCAATACATGGACCGGTTTTCCCGGTAATCCGTATTTGGC (site CCCAATACTGC)” are the same in “recombinant UMI read abundance (log10)” value: 0 for the first, 0 for the second.

“CCCAATACATGGACCGGTTTTCCCGGTAATCCGTATTTGGC (site CCGAATACTGC)” and “CCCAATACATGGACCGGTTTTCCCGGTAATCCGTATTTGGC (site CCTAATACTGC)” are the same in “recombinant UMI read abundance (log10)” value: 0 for the first, 0 for the second.

Going from “CCCACATCATGGACCGGTTTTCCCGGTAATCCGTATTTGTC (site CCCAAATCTGA)” to “CCCACATCATGGACCGGTTTTCCCGGTAATCCGTATTTGTC (site CCCACATCTGA)”, the “recombinant UMI read abundance (log10)” value rises from 0 to 0.453.

“CCCACATCATGGACCGGTTTTCCCGGTAATCCGTATTTGTC (site CCCAGATCTGA)” and “CCCACATCATGGACCGGTTTTCCCGGTAATCCGTATTTGTC (site CCCATATCTGA)” are the same in “recombinant UMI read abundance (log10)” value: 0 for the first, 0 for the second.

Compared with “CCCATAGCATGGACCGGTTTTCCCGGTAATCCGTATTTGTC (site CCCATAACTGA)”, “CCCATAGCATGGACCGGTTTTCCCGGTAATCCGTATTTGTC (site CCCATACCTGA)” is lower in “recombinant UMI read abundance (log10)” value: 0.433 for the first, 0 for the second.

Going from “CCCATAGCATGGACCGGTTTTCCCGGTAATCCGTATTTGTC (site CCCATAGCTGA)” to “CCCATAGCATGGACCGGTTTTCCCGGTAATCCGTATTTGTC (site CCCATATCTGA)”, the “recombinant UMI read abundance (log10)” value falls from 1.56 to 0.

Compared with “CCCATATCATGGACCGGTTTTCCCGGTAATCCGTATTTGTT (site CCCATATCTAA)”, “CCCATATCATGGACCGGTTTTCCCGGTAATCCGTATTTGTT (site CCCATATCTCA)” is lower in “recombinant UMI read abundance (log10)” value: 1.01 for the first, 0.0132 for the second.

“CCCATATCATGGACCGGTTTTCCCGGTAATCCGTATTTGTT (site CCCATATCTGA)” and “CCCATATCATGGACCGGTTTTCCCGGTAATCCGTATTTGTT (site CCCATATCTTA)” are the same in “recombinant UMI read abundance (log10)” value: 0 for the first, 0 for the second.

“CCCATCTCATGGACCGGTTTTCCCGGTAATCCGTATTTGGG (site CCCATCTCTCC)” and “CCCATCTCATGGACCGGTTTTCCCGGTAATCCGTATTTGGG (site CCCCTCTCTCC)” are within 0.2 log units of each other in “recombinant UMI read abundance (log10)” value: 0 for the first, 0.078 for the second.

“CCCATCTCATGGACCGGTTTTCCCGGTAATCCGTATTTGGG (site CCCGTCTCTCC)” and “CCCATCTCATGGACCGGTTTTCCCGGTAATCCGTATTTGGG (site CCCTTCTCTCC)” are within 0.2 log units of each other in “recombinant UMI read abundance (log10)” value: 0.00519 for the first, 0.0111 for the second.

“CCCCACACATGGACCGGTTTTCCCGGTAATCCGTATTTGGA (site CCCCACACTTA)” and “CCCCACACATGGACCGGTTTTCCCGGTAATCCGTATTTGGA (site CCCCACACTTC)” are within 0.2 log units of each other in “recombinant UMI read abundance (log10)” value: 0.369 for the first, 0.275 for the second.

“CCCCACACATGGACCGGTTTTCCCGGTAATCCGTATTTGGA (site CCCCACACTTG)” and “CCCCACACATGGACCGGTTTTCCCGGTAATCCGTATTTGGA (site CCCCACACTTT)” are the same in “recombinant UMI read abundance (log10)” value: 0 for the first, 0 for the second.

“CCCCACACATGGACCGGTTTTCCCGGTAATCCGTATTTGTG (site CCCCACACTAA)” and “CCCCACACATGGACCGGTTTTCCCGGTAATCCGTATTTGTG (site CCCCACACTCA)” are within 0.2 log units of each other in “recombinant UMI read abundance (log10)” value: 0.0034 for the first, 0.00514 for the second.

“CCCCACACATGGACCGGTTTTCCCGGTAATCCGTATTTGTG (site CCCCACACTGA)” and “CCCCACACATGGACCGGTTTTCCCGGTAATCCGTATTTGTG (site CCCCACACTTA)” are within 0.2 log units of each other in “recombinant UMI read abundance (log10)” value: 0 for the first, 0.0257 for the second.

“CCCCACTCATGGACCGGTTTTCCCGGTAATCCGTATTTGTA (site CCCCACACTTA)” and “CCCCACTCATGGACCGGTTTTCCCGGTAATCCGTATTTGTA (site CCCCACCCTTA)” are within 0.2 log units of each other in “recombinant UMI read abundance (log10)” value: 0 for the first, 0.00571 for the second.

First: CCCCACTCATGGACCGGTTTTCCCGGTAATCCGTATTTGTA (site CCCCACGCTTA)
Second: CCCCACTCATGGACCGGTTTTCCCGGTAATCCGTATTTGTA (site CCCCACTCTTA)
The “recombinant UMI read abundance (log10)” value of the first is lower: 0.00566 for the first, 2.01 for the second.

Compared with “CCCCATTCATGGACCGGTTTTCCCGGTAATCCGTATTTGGA (site CCCCATTCTTC)”, “CCCCCTACATGGACCGGTTTTCCCGGTAATCCGTATTTGAG (site CACCCTACTCT)” is lower in “recombinant UMI read abundance (log10)” value: 0.274 for the first, 0.0202 for the second.

“CCCCCTACATGGACCGGTTTTCCCGGTAATCCGTATTTGAG (site CCCCCTACTCT)” and “CCCCCTACATGGACCGGTTTTCCCGGTAATCCGTATTTGAG (site CGCCCTACTCT)” are within 0.2 log units of each other in “recombinant UMI read abundance (log10)” value: 0.0375 for the first, 0.0197 for the second.

“CCCCCTACATGGACCGGTTTTCCCGGTAATCCGTATTTGAG (site CTCCCTACTCT)” and “CCCCGGGCATGGACCGGTTTTCCCGGTAATCCGTATTTGGG (site CCCCGGGCTCC)” are within 0.2 log units of each other in “recombinant UMI read abundance (log10)” value: 0.011 for the first, 0.182 for the second.

Going from “CCCGAAGCATGGACCGGTTTTCCCGGTAATCCGTATTTGTT (site CCCGAAGCTAA)” to “CCCGAGACATGGACCGGTTTTCCCGGTAATCCGTATTTGGT (site CCCGAGACTAC)”, the “recombinant UMI read abundance (log10)” value falls from 1.18 to 0.543.

Going from “CCCGATCCATGGACCGGTTTTCCCGGTAATCCGTATTTGTG (site CCCGATCCTCA)” to “CCCGCACCATGGACCGGTTTTCCCGGTAATCCGTATTTGCA (site CCCGCACCTTG)”, the “recombinant UMI read abundance (log10)” value falls from 1.73 to 0.

Going from “CCCGCCACATGGACCGGTTTTCCCGGTAATCCGTATTTGCC (site CCCGCCACTGG)” to “CCCGCGGCATGGACCGGTTTTCCCGGTAATCCGTATTTGGG (site CCCGCGGCTCC)”, the “recombinant UMI read abundance (log10)” value falls from 2.07 to 0.0266.

“CCCGGTCCATGGACCGGTTTTCCCGGTAATCCGTATTTGCA (site ACCGGTCCTTG)” and “CCCGGTCCATGGACCGGTTTTCCCGGTAATCCGTATTTGCA (site CACGGTCCTTG)” are the same in “recombinant UMI read abundance (log10)” value: 0 for the first, 0 for the second.

“CCCGGTCCATGGACCGGTTTTCCCGGTAATCCGTATTTGCA (site CCAGGTCCTTG)” and “CCCGGTCCATGGACCGGTTTTCCCGGTAATCCGTATTTGCA (site CCCAGTCCTTG)” are the same in “recombinant UMI read abundance (log10)” value: 0 for the first, 0 for the second.

“CCCGGTCCATGGACCGGTTTTCCCGGTAATCCGTATTTGCA (site CCCCGTCCTTG)” and “CCCGGTCCATGGACCGGTTTTCCCGGTAATCCGTATTTGCA (site CCCGATCCTTG)” are within 0.2 log units of each other in “recombinant UMI read abundance (log10)” value: 0.0143 for the first, 0 for the second.

With “CCCGGTCCATGGACCGGTTTTCCCGGTAATCCGTATTTGCA (site CCCGCTCCTTG)” the “recombinant UMI read abundance (log10)” value was 0.
